Laboratory results taken from ChEMBL document CHEMBL4190257, “Discovery of phenylsulfonyl acetic acid derivatives with improved efficacy and safety as potent free fatty acid receptor 1 agonists for the treatment of type 2 diabetes” (Eur J Med Chem, 2017).

Experiments:
[1] = molecular target: T1, Free fatty acid receptor 1 (Homo sapiens, UniProt O14842); assay: Agonist activity at human FFA1 receptor expressed in CHO cells assessed as increase in intracellular calcium flux by Fluo 4AM dye-based FLIPR assay; format: functional, cell-based
[2] = tested on: HepG2; assay: Apoptotic cytotoxicity in human HepG2 cells assessed as caspase-3/7 activity at 30 uM after 24 hrs by caspase-glo-3/7 assay relative to staurosporine; format: cell-based; details: hepg2, 24 h
[3] = Octanol/phosphate buffer distribution coefficient, log D of the compound at 100 uM at pH 7.4 after 24 hrs by shake flask method; format: physicochemical
[4] = Cmax in fasted Sprague-Dawley rat at 10 mg/kg, po administered as single dose measured up to 24 hrs post dose by LC-PDA-MS/MS analysis; format: ADME, organism-based; parameters: dose 10 mg/kg, route oral; details: in vivo
[5] = Clearance in fasted Sprague-Dawley rat at 10 mg/kg, po administered as single dose measured up to 24 hrs post dose by LC-PDA-MS/MS analysis; format: ADME, organism-based; details: in vivo
[6] = molecular target: T1, Free fatty acid receptor 1; assay: Agonist activity at human FFA1 receptor expressed in CHO cells assessed as increase in intracellular calcium flux at 10 uM by Fluo 4AM dye-based FLIPR assay relative to TAK-875; format: functional, cell-based
[7] = AUC (0 to 24 hrs) in fasted Sprague-Dawley rat at 10 mg/kg, po administered as single dose measured up to 24 hrs post dose by LC-PDA-MS/MS analysis; format: ADME, organism-based; parameters: time < 24 hr, dose 10 mg/kg, route oral; details: in vivo
[8] = Half life in fasted Sprague-Dawley rat at 10 mg/kg, po administered as single dose measured up to 24 hrs post dose by LC-PDA-MS/MS analysis; format: ADME, organism-based; details: in vivo
[9] = Drug level in Sprague-Dawley rat plasma treated with 2-((4-((2'-chloro-[1,1'-biphenyl]-3-yl)methoxy)phenyl)sulfonyl)acetic acid at 10 mg/kg, po measured up to 24 hrs post dose by LC-PDA-MS/MS analysis; format: ADME, organism-based; details: in vivo

T1 sequence (O14842 whole entry): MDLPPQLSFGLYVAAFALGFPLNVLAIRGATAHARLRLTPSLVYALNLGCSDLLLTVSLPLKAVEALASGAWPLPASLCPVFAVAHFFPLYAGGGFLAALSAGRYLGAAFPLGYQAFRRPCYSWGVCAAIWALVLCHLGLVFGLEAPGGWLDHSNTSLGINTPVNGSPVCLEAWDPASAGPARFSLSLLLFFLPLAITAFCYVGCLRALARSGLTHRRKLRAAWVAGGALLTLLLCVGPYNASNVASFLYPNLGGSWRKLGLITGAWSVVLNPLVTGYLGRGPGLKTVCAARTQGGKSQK

SMILES: CCC(C(=O)O)S(=O)(=O)c1ccc(OCc2cccc(-c3c(C)cc(OC)cc3C)c2)cc1 (configuration not stated)
- EC50 [1]: > 1000 nM

SMILES: Cc1cc(OCCCS(C)(=O)=O)cc(C)c1-c1cccc(COc2ccc(CCC(=O)O)cc2)c1
- Activity [2]: 46.8%
- logD at 24 h, 100 µM [3]: 3.75
- Cmax [4]: 517 ng/mL
- CL/F [5]: 118 mL/min/kg
- EC50 [1]: 15.5 nM
- Efficacy [6]: 116%
- AUC(0-t) at 24 h [7]: 1020 ng·h/mL
- half-life [8]: 1.09 h

SMILES: Cc1ccc(C)n1-c1cccc(COc2ccc(S(=O)(=O)CC(=O)O)cc2)c1
- EC50 [1]: 129 nM
- Efficacy [6]: 85%

SMILES: CCOc1ccc(-c2cccc(COc3ccc(S(=O)(=O)CC(=O)O)cc3)c2)c(Cl)c1
- Activity [2]: 26.9%
- logD at 24 h, 100 µM [3]: 3.12
- EC50 [1]: 51.3 nM
- Efficacy [6]: 105%

SMILES: O=C(O)CS(=O)(=O)c1ccc(OCc2cccc(-c3ccccc3F)c2)cc1
- EC50 [1]: 257 nM
- Efficacy [6]: 97%

SMILES: O=C(O)CS(=O)(=O)c1cccc(OCc2ccc(-c3ccccc3)cc2)c1
- EC50 [1]: > 1000 nM

SMILES: Cc1nc(-c2cccc(Cl)c2)sc1COc1ccc(S(=O)(=O)CC(=O)O)cc1
- EC50 [1]: 251 nM
- Efficacy [6]: 85%

SMILES: O=C(O)CS(=O)(=O)c1ccc(OCc2cccc(-c3ccccc3C(F)(F)F)c2)cc1
- Activity [2]: 12.5%
- logD at 24 h, 100 µM [3]: 2.95
- EC50 [1]: 52.5 nM
- Efficacy [6]: 108%

SMILES: O=C(CS(=O)(=O)c1ccc(OCc2cccc(-c3ccccc3Cl)c2)cc1)O[C@@H]1O[C@H](CO)[C@@H](O)[C@H](O)[C@H]1O
- Drug metabolism [9]: Metabolite_Detected

SMILES: CO/N=C1\CC(CC(=O)O)c2ccc(OCc3cccc(-c4c(C)cc(OC)cc4C)c3)cc21 (configuration not stated)
- EC50 [1]: > 1000 nM

SMILES: Cc1cccc(C)c1-c1cccc(COc2ccc(SCC(=O)O)cc2)c1
- logD at 24 h, 100 µM [3]: 3.82
- EC50 [1]: 195 nM
- Efficacy [6]: 95%

SMILES: COc1cc(C)c(-c2cccc(COc3ccc(S(=O)(=O)C4(C(=O)O)CC4)cc3)c2)c(C)c1
- EC50 [1]: > 1000 nM

SMILES: Cc1nc(-c2ccccc2)sc1COc1ccc(S(=O)(=O)CC(=O)O)cc1
- EC50 [1]: 331 nM
- Efficacy [6]: 91%

SMILES: Cc1ccccc1-c1ccc(COc2cccc(S(=O)(=O)CC(=O)O)c2)cc1
- EC50 [1]: > 1000 nM

SMILES: COc1ccccc1-c1cccc(COc2ccc(S(=O)(=O)CC(=O)O)cc2)c1
- EC50 [1]: 195 nM
- Efficacy [6]: 96%

SMILES: CC(C)c1ccccc1-c1cccc(COc2ccc(S(=O)(=O)CC(=O)O)cc2)c1
- logD at 24 h, 100 µM [3]: 3.18
- EC50 [1]: 74.1 nM
- Efficacy [6]: 101%

SMILES: Cc1cccc(-c2nc(C)c(COc3ccc(S(=O)(=O)CC(=O)O)cc3)s2)c1
- EC50 [1]: 214 nM
- Efficacy [6]: 82%

SMILES: Cc1noc(C)c1-c1ccc(Cl)c(COc2ccc(S(=O)(=O)CC(=O)O)cc2)c1
- EC50 [1]: 234 nM
- Efficacy [6]: 84%

SMILES: O=C(CS(=O)(=O)c1ccc(OCc2cccc(-c3ccccc3Cl)c2)cc1)NCCS(=O)(=O)O
- Drug metabolism [9]: Metabolite_Detected

SMILES: Cc1cc(OCC(C)C)cc(C)c1-c1cccc(COc2ccc(S(=O)(=O)CC(=O)O)cc2)c1
- logD at 24 h, 100 µM [3]: 3.94
- EC50 [1]: 95.5 nM
- Efficacy [6]: 96%

SMILES: COc1cc(C)c(-c2cccc(COc3ccc4c(c3)S(=O)(=O)CC4CC(=O)O)c2)c(C)c1 (configuration not stated)
- EC50 [1]: > 1000 nM

SMILES: Cc1cccc(C)c1-c1cccc(COc2ccc(S(=O)(=O)CC(=O)O)cc2)c1
- Activity [2]: -1.5%
- logD at 24 h, 100 µM [3]: 2.49
- EC50 [1]: 66.1 nM
- Efficacy [6]: 103%

SMILES: Cc1nc(-c2ccc(F)cc2)sc1COc1ccc(S(=O)(=O)CC(=O)O)cc1
- EC50 [1]: 191 nM
- Efficacy [6]: 92%

SMILES: COc1cc(C)c(-c2cccc(COc3ccc(S(=O)(=O)C(C)C(=O)O)cc3)c2)c(C)c1 (configuration not stated)
- EC50 [1]: > 1000 nM

SMILES: Cc1noc(C)c1-c1cccc(COc2ccc(S(=O)(=O)CC(=O)O)cc2)c1
- EC50 [1]: 269 nM
- Efficacy [6]: 82%

SMILES: Cc1noc(C)c1-c1cccc(COc2ccc(S(=O)(=O)CC(=O)O)cc2)c1C
- EC50 [1]: 363 nM
- Efficacy [6]: 77%

SMILES: COc1cc(C)c(-c2cccc(COc3ccc4c(c3)C(O)CC4CC(=O)O)c2)c(C)c1 (configuration not stated)
- EC50 [1]: 550 nM
- Efficacy [6]: 83%

SMILES: Cc1ccc(-c2cccc(COc3ccc(S(=O)(=O)CC(=O)O)cc3)c2)c(Cl)c1
- Activity [2]: 17.6%
- logD at 24 h, 100 µM [3]: 3.05
- EC50 [1]: 36.3 nM
- Efficacy [6]: 112%

SMILES: Cc1cc(OCC2CC2)cc(C)c1-c1cccc(COc2ccc(S(=O)(=O)CC(=O)O)cc2)c1
- Activity [2]: 26.3%
- logD at 24 h, 100 µM [3]: 3.46
- EC50 [1]: 79.4 nM
- Efficacy [6]: 98%

SMILES: Cc1noc(C)c1-c1cc(COc2ccc(S(=O)(=O)CC(=O)O)cc2)ccc1Cl
- EC50 [1]: 214 nM
- Efficacy [6]: 81%

SMILES: N#Cc1ccccc1-c1cccc(COc2ccc(S(=O)(=O)CC(=O)O)cc2)c1
- EC50 [1]: 457 nM
- Efficacy [6]: 78%

SMILES: COc1cc(C)c(-c2cccc(COc3ccc(S(=O)(=O)C(C)(C)C(=O)O)cc3)c2)c(C)c1
- EC50 [1]: > 1000 nM

SMILES: Cc1cc(OCCCS(C)(=O)=O)cc(C)c1-c1cccc(COc2ccc(S(=O)(=O)CC(=O)O)cc2)c1
- EC50 [1]: 170 nM
- Efficacy [6]: 83%

SMILES: Cc1ccc(-c2c(C)noc2C)cc1COc1ccc(S(=O)(=O)CC(=O)O)cc1
- EC50 [1]: 427 nM
- Efficacy [6]: 73%

SMILES: O=C(O)CS(=O)(=O)c1ccc(OCc2cccc(Oc3ccccc3)c2)cc1
- EC50 [1]: 97.7 nM
- Efficacy [6]: 101%

SMILES: Cc1nc(-c2ccccc2F)sc1COc1ccc(S(=O)(=O)CC(=O)O)cc1
- EC50 [1]: 550 nM
- Efficacy [6]: 75%

SMILES: COc1cc(C)c(-c2cccc(COc3ccc4c(c3)C(=O)CC4CC(=O)O)c2)c(C)c1 (configuration not stated)
- EC50 [1]: 234 nM
- Efficacy [6]: 87%

SMILES: Cc1ccccc1-c1cccc(COc2ccc(S(=O)(=O)CC(=O)O)cc2)c1
- Activity [2]: -2.7%
- logD at 24 h, 100 µM [3]: 2.35
- EC50 [1]: 46.8 nM
- Efficacy [6]: 113%

SMILES: CO/N=C(\COc1ccc(COc2ccc(S(=O)(=O)CC(=O)O)cc2)cc1)c1ccccc1
- EC50 [1]: 178 nM
- Efficacy [6]: 92%

SMILES: Cc1nc(-c2cccc(F)c2)sc1COc1ccc(S(=O)(=O)CC(=O)O)cc1
- EC50 [1]: 275 nM
- Efficacy [6]: 84%

SMILES: O=C(O)c1cccc(-c2ccccc2Cl)c1
- Drug metabolism [9]: Metabolite_Detected

SMILES: O=C(O)CS(=O)(=O)c1ccc(OCc2cccc(-c3ccccc3)c2)cc1
- Activity [2]: -1.9%
- logD at 24 h, 100 µM [3]: 2.13
- EC50 [1]: 288 nM
- Efficacy [6]: 94%

SMILES: CCCOc1cc(C)c(-c2cccc(COc3ccc(S(=O)(=O)CC(=O)O)cc3)c2)c(C)c1
- Activity [2]: 29.5%
- logD at 24 h, 100 µM [3]: 3.58
- EC50 [1]: 69.2 nM
- Efficacy [6]: 104%

SMILES: COc1cc(C)c(-c2cccc(COc3ccc(S(=O)(=O)CC(=O)O)cc3)c2)c(C)c1
- Activity [2]: -2.4%
- logD at 24 h, 100 µM [3]: 2.45
- EC50 [1]: 57.5 nM
- Efficacy [6]: 106%

SMILES: COCCOc1cc(C)c(-c2cccc(COc3ccc(S(=O)(=O)CC(=O)O)cc3)c2)c(C)c1
- EC50 [1]: 126 nM
- Efficacy [6]: 95%

SMILES: CCOc1cc(C)c(-c2cccc(COc3ccc(S(=O)(=O)CC(=O)O)cc3)c2)c(C)c1
- Activity [2]: 6.7%
- logD at 24 h, 100 µM [3]: 2.86
- EC50 [1]: 63.1 nM
- Efficacy [6]: 107%

SMILES: COc1cc(C)c(-c2cccc(COc3ccc4c(c3)SCC4CC(=O)O)c2)c(C)c1 (configuration not stated)
- EC50 [1]: 123 nM
- Efficacy [6]: 98%
